# In patent US20230017045A1, “PYRIDINE AND PYRIMIDINE CARBOXYLATE HERBICIDES AND METHODS OF USE THEREOF” (Dow AgroSciences LLC, priority 2017, published 2023):
# Read-outs that look alike come from different tables or passages of the source.
# How the values were obtained:
# test plant species = assay: Post-emergent herbicidal activity test (greenhouse, foliar spray, visual growth reduction); type: in vivo; details: post-emergence, 336 h, 140 g ai/ha
# Method in brief: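 Seedlings were raised 7-21 d in a greenhouse under a 15 h photoperiod until the first or second true leaf. Each compound, dissolved in acetone:DMSO 97:3 and diluted into a surfactant-containing spray mixture, was then applied at 187 L/ha. Plants were subirrigated, and growth reduction was scored visually at 14 d.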
# [1] = ALOMY: blackgrass (Alopecurus myosuroides), 14 days after application, read-out: Visual Growth Reduction (%) 14 Days After Application, ALOMY
# [2] = AMARE: redroot pigweed (Amaranthus retroflexus), 14 days after application, read-out: Visual Growth Reduction (%) 14 Days After Application, AMARE
# [3] = AVEFA: wild oat (Avena fatua), 14 days after application, read-out: Visual Growth Reduction (%) 14 Days After Application, AVEFA
# [4] = CHEAL: lambsquarters (Chenopodium album), 14 days after application, read-out: Visual Growth Reduction (%) 14 Days After Application, CHEAL
# [5] = CIRAR: canada thistle (Cirsium arvense), 14 days after application, read-out: Visual Growth Reduction (%) 14 Days After Application, CIRAR
# [6] = CYPES: yellow nutsedge (Cyperus esculentus), 14 days after application, read-out: Visual Growth Reduction (%) 14 Days After Application, CYPES
# [7] = DIGSA: crabgrass (Digitaria sanguinalis), 14 days after application, read-out: Visual Growth Reduction (%) 14 Days After Application, DIGSA
# [8] = ECHCG: barnyardgrass (Echinochloa crus-galli), 14 days after application, read-out: Visual Growth Reduction (%) 14 Days After Application, ECHCG
# [9] = IPOHE: ivy-leaf morning glory (Ipomoea hederacea), 14 days after application, read-out: Visual Growth Reduction (%) 14 Days After Application, IPOHE
# [10] = KCHSC: kochia (Bassia scoparia), 14 days after application, read-out: Visual Growth Reduction (%) 14 Days After Application, KCHSC
# [11] = ORYSA: rice (Oryza sativa), 14 days after application, read-out: Visual Growth Reduction (%) 14 Days After Application, ORYSA
# [12] = SETFA: giant foxtail (Setaria faberi), 14 days after application, read-out: Visual Growth Reduction (%) 14 Days After Application, SETFA
# [13] = SORVU: grain sorghum (Sorghum vulgare), 14 days after application, read-out: Visual Growth Reduction (%) 14 Days After Application, SORVU
# [14] = STEME: common chickweed (Stellaria media), 14 days after application, read-out: Visual Growth Reduction (%) 14 Days After Application, STEME
# [15] = TRZAS: wheat, spring (Triticum aestivum), 14 days after application, read-out: Visual Growth Reduction (%) 14 Days After Application, TRZAS
Structure (SMILES),pest or weed control at 140 g/ha (test plant species; [1]) [%],pest or weed control at 140 g/ha (test plant species; [2]) [%],pest or weed control at 140 g/ha (test plant species; [3]) [%],pest or weed control at 140 g/ha (test plant species; [4]) [%],pest or weed control at 140 g/ha (test plant species; [5]) [%],pest or weed control at 140 g/ha (test plant species; [6]) [%],pest or weed control at 140 g/ha (test plant species; [7]) [%],pest or weed control at 140 g/ha (test plant species; [8]) [%],pest or weed control at 140 g/ha (test plant species; [9]) [%],pest or weed control at 140 g/ha (test plant species; [10]) [%],pest or weed control at 140 g/ha (test plant species; [11]) [%],pest or weed control at 140 g/ha (test plant species; [12]) [%],pest or weed control at 140 g/ha (test plant species; [13]) [%],pest or weed control at 140 g/ha (test plant species; [14]) [%],pest or weed control at 140 g/ha (test plant species; [15]) [%],melting point [°C],further results
"COC(=O)c1nc(-c2ccc(C(F)(F)F)cc2Cl)cc(C)c1Cl [F33, methyl 3-chloro-6-(2-chloro-4-(trifluoromethyl)phenyl)-4-methylpicolinate]",0 to 29,0 to 29,0 to 29,45 to 59,45 to 59,0 to 29,30 to 44,0 to 29,85 to 94,0 to 29,0 to 29,0 to 29,60 to 74,0 to 29,0 to 29,61 to 63,
"COC(=O)c1nc(-c2ccc(C(F)(F)F)cc2Cl)c(F)c(OC)c1Cl [F42, methyl 3-chloro-6-(2-chloro-4-(trifluoromethyl)phenyl)-5-fluoro-4-methoxypicolinate]",0 to 29,30 to 44,0 to 29,85 to 94,60 to 74,0 to 29,0 to 29,0 to 29,85 to 94,45 to 59,0 to 29,0 to 29,75 to 84,0 to 29,0 to 29,65 to 67,
"O=C(OCc1ccccc1)c1nc(-c2ccc(C(F)(F)F)cc2Cl)ccc1Cl [F44, benzyl 3-chloro-6-(2-chloro-4-(trifluoromethyl)phenyl)picolinate]",30 to 44,95 to 100,45 to 59,95 to 100,95 to 100,0 to 29,75 to 84,45 to 59,95 to 100,85 to 94,0 to 29,85 to 94,85 to 94,0 to 29,75 to 84,56 to 57,
"COC(=O)c1nc(-c2ccc(C(F)(F)F)cc2Cl)c(Cl)cc1Cl [F103, Methyl 3,5-dichloro-6-(2-chloro-4-(trifluoromethyl)phenyl)picolinate]",0 to 29,60 to 74,0 to 29,75 to 84,85 to 94,0 to 29,30 to 44,0 to 29,95 to 100,75 to 84,0 to 29,60 to 74,75 to 84,0 to 29,0 to 29,85 to 86,
"COC(=O)c1nc(-c2ccc(C(F)(F)F)cc2Cl)cc(F)c1Cl [F109, methyl 3-chloro-6-(2-chloro-4-(trifluoromethyl)phenyl)-4-fluoropicolinate]",0 to 29,0 to 29,0 to 29,0 to 29,0 to 29,0 to 29,0 to 29,0 to 29,0 to 29,0 to 29,0 to 29,0 to 29,0 to 29,,0 to 29,127 to 128,
"COc1ncc(Cl)cc1-c1ccc(Cl)c(C(=O)O)n1 [F134, 5,5′-Dichloro-2′-methoxy-[2,3′-bipyridine]-6-carboxylic acid]",0 to 29,0 to 29,0 to 29,0 to 29,0 to 29,0 to 29,0 to 29,0 to 29,0 to 29,0 to 29,0 to 29,0 to 29,0 to 29,0 to 29,0 to 29,155.2 to 163.3,
"C=C(C)COC(=O)c1nc(-c2ccc(C(F)(F)F)cc2Cl)ccc1Cl [F381, 2-Methylallyl 3-chloro-6-(2-chloro-4-(trifluoromethyl)phenyl)picolinate]",,,,,,,,85 to 94,95 to 100,95 to 100,0 to 29,85 to 94,85 to 94,0 to 29,60 to 74,,"pest or weed control at 140 g/ha (test plant species; blackgrass (Alopecurus myosuroides), 14 Days After Application, read-out: Visual Growth Reduction (%) ALOMY): 45 to 59%; pest or weed control at 140 g/ha (test plant species; canada thistle (Cirsium arvense), 14 Days After Application, read-out: Visual Growth Reduction (%) CIRAR): 85 to 94%; pest or weed control at 140 g/ha (test plant species; crabgrass (Digitaria sanguinalis), 14 Days After Application, read-out: Visual Growth Reduction (%) DIGSA): 85 to 94%; pest or weed control at 140 g/ha (test plant species; lambsquarters (Chenopodium album), 14 Days After Application, read-out: Visual Growth Reduction (%) CHEAL): 95 to 100%; pest or weed control at 140 g/ha (test plant species; redroot pigweed (Amaranthus retroflexus), 14 Days After Application, read-out: Visual Growth Reduction (%) AMARE): 85 to 94%; pest or weed control at 140 g/ha (test plant species; wild oat (Avena fatua), 14 Days After Application, read-out: Visual Growth Reduction (%) AVEFA): 45 to 59%; pest or weed control at 140 g/ha (test plant species; yellow nutsedge (Cyperus esculentus), 14 Days After Application, read-out: Visual Growth Reduction (%) CYPES): 0 to 29%"
